Measurements from ChEMBL document CHEMBL1201862, “PubChem BioAssay data set” (2004).
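In this assay, cells in 96-well plates receive the compound at five concentrations for 48 hours. Endpoints are linearly interpolated between the surrounding concentrations. GI50 = concentration required for 50% inhibition of growth.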 Active and inactive are the calls of the source. Rule as the data show it: active = GI50 up to about 1.1 µM and inactive = higher.

Assays:
Assay in all cases: NCI anticancer screen, dose series, 48 h
[1] = system: 786-0
[2] = system: A498
[3] = system: A549
[4] = system: ACHN
[5] = system: CAKI-1
[6] = system: CCRF-CEM
[7] = system: COLO 205
[8] = system: DU-145
[9] = system: EKVX
[10] = system: HCC 2998
[11] = system: HCT-116
[12] = system: HCT-15
[13] = system: HL-60
[14] = system: HOP-62
[15] = system: HOP-92
[16] = system: HT-29
[17] = system: Hs-578T
[18] = system: IGROV-1
[19] = system: K562
[20] = system: KM12
[21] = system: LOX IMVI
[22] = system: M14
[23] = system: MCF7
[24] = system: MDA-MB-231
[25] = system: MDA-MB-435
[26] = system: MDA-N
[27] = system: MOLT-4
[28] = system: Malme-3M
[29] = system: NCI-H226
[30] = system: NCI-H23
[31] = system: NCI-H460
[32] = system: NCI-H522
[33] = system: OVCAR-3
[34] = system: OVCAR-4
[35] = system: OVCAR-5
[36] = system: OVCAR-8
[37] = system: PC-3
[38] = system: RPMI-8226
[39] = system: RXF 393
[40] = system: SF-268
[41] = system: SF-295
[42] = system: SF-539
[43] = system: SK-MEL-28
[44] = system: SK-MEL-2
[45] = system: SK-MEL-5
[46] = system: SK-OV-3
[47] = system: SN12C
[48] = system: SNB-19
[49] = system: SNB-75
[50] = system: SR
[51] = system: T47D
[52] = system: TK-10
[53] = system: U-251
[54] = system: UACC-257
[55] = system: UACC-62
[56] = system: UO-31
[57] = system: NCI/ADR-RES
[58] = system: SW-620

Measured: GI50

CCN(CC)CCC1CCCCN1CC(=O)N1c2ccccc2NC(=O)CC1C (configuration not stated)
active: [49] 93.3 nM
> 100 µM: [12]
inactive: [1] > 100 µM | [2] > 100 µM | [3] > 100 µM | [4] > 100 µM | [5] > 100 µM | [6] > 100 µM | [7] > 100 µM | [8] > 100 µM | [9] > 100 µM | [10] > 100 µM | [11] > 100 µM | [13] > 100 µM | [14] > 100 µM | [15] > 100 µM | [16] > 100 µM | [17] > 100 µM | [18] > 100 µM | [19] > 100 µM | [20] > 100 µM | [21] > 100 µM | [22] > 100 µM | [23] > 100 µM | [24] > 100 µM | [25] > 100 µM | [26] > 100 µM | [27] > 100 µM | [28] > 100 µM | [29] > 100 µM | [30] > 100 µM | [31] > 100 µM | [32] > 100 µM | [33] > 100 µM | [34] > 100 µM | [35] > 100 µM | [36] > 100 µM | [37] > 100 µM | [38] > 100 µM | [39] > 100 µM | [40] > 100 µM | [41] > 100 µM | [42] > 100 µM | [43] > 100 µM | [44] > 100 µM | [45] > 100 µM | [46] > 100 µM | [47] > 100 µM | [48] > 100 µM | [50] > 100 µM | [51] > 100 µM | [52] > 100 µM | [53] > 100 µM | [54] > 100 µM | [55] > 100 µM | [56] > 100 µM

[O-][n+]1onc2c1-c1nonc1CC2
62.8 µM: [12]
inactive: [1] 43.7 µM | [2] 31.7 µM | [3] 72.1 µM | [4] 27.1 µM | [5] 69.3 µM | [6] 27.7 µM | [7] 48.5 µM | [8] 51.2 µM | [9] 25.9 µM | [10] 77.1 µM | [11] 20.7 µM | [13] 34.5 µM | [14] 28.2 µM | [16] 35.5 µM | [17] 26.7 µM | [18] 38.8 µM | [19] 56 µM | [20] 45.3 µM | [21] 22.4 µM | [22] 25.1 µM | [23] 28.5 µM | [24] 27 µM | [25] 39.1 µM | [26] 46.2 µM | [27] 19.2 µM | [28] 11.9 µM | [29] 36.8 µM | [30] 23.8 µM | [31] 54.2 µM | [32] 31 µM | [57] 42.7 µM | [33] 10.6 µM | [34] 30.3 µM | [35] 50.8 µM | [36] 46 µM | [37] 26.5 µM | [38] > 100 µM | [39] 36.1 µM | [40] 36.5 µM | [41] > 100 µM | [42] 25.3 µM | [43] 55.2 µM | [44] 24.1 µM | [45] 27 µM | [46] 47.9 µM | [47] 37.5 µM | [48] > 100 µM | [50] 1.46 µM | [58] 45.1 µM | [51] 83 µM | [52] 21.5 µM | [53] 31.9 µM | [54] 18.5 µM | [55] 36.6 µM | [56] 48.6 µM
